# Experimental data: EP1594520B1, “USE OF BRADYKININ-B2 RECEPTOR ANTAGONISTS FOR TREATING OSTEOARTHROSIS” (Sanofi-Aventis Deutschland GmbH, priority 2003, dated 2006)
# System: SW1353 Zellen
# Assay: MMP-3 release from IL-1 stimulated SW1353 chondrosarcoma cells (MMP3 ELISA of the culture supernatant)
# Type: cell-based
# Procedure: Für die Analyse der krankheitsmodifizierenden Wirkung von HOE140 in einem Knorpelrelevanten Zellkulturmodel wurde die MMP3 Expression in der Chondrosarcom Zellline SW1353 (ATCC: HTB 94) analysiert. Für die Versuche wurden SW1353 Zellen unter Standard Bedingungen (37°C, 5% CO2) in DMEM-Glutamax mit 10% Fötalem Kälberserum (FKS) in Plastikkulturflaschen kultiviert. Nach ab-trypsinieren der Zellen wurden 50.000 Zellen je well einer 96-well Flachboden Platte in Medium ohne FKS ausgesät und mit der Verbindung HOE140 im Inkubator vorinkubiert. […] Nach 24 Stunden Inkubation unter Standardbedingungen wurde der Zellkulturüberstand abgenommen, 5 Minuten zentrifugiert und bei -20 °C bis zur weiteren Analyse eingefroren. Die Analyse der MMP3 Expression in den Zellkulturüberständen erfolgt dann mittels eines kommerziellen MMP3 ELISA Testsystems (Amersham) nach Angaben des Herstellers. Parallel dazu wurde mit den verbleibenden Zellen ein WST-Zytotoxizitätstest durchgeführt. Dazu wurde das kommerzielle Testsystem der Firma Roche verwendet und die Messung nach Angaben des Herstellerprotokolls durchgeführt.
# Die nachfolgende Tabelle 1 zeigt die Ergebnisse. Bradykinin erhöht die MMP3 Freisetzung um mehr als 30%. […] Tabelle 1 MMP-3 Freisetzung aus SW-Zellen
Substance,Erhöhung der MMP3 Freisetzung (Bradykinin added to IL1-stimulated SW cells),"MMP-3 Freisetzung MW (OD450nm) (IL1α + Bradykinin (0,1 µM), no antagonist)","Relativwerte bezogen auf Ausgangswert (IL1α + Bradykinin (0,1 µM), no antagonist, IL1α (0,05 ng/ml) alone = 100)","MMP-3 Freisetzung MW (OD450nm) (IL1α + Bradykinin (0,1 µM) + 0,1 µM HOE140)","Relativwerte bezogen auf Ausgangswert (IL1α + Bradykinin (0,1 µM) + 0,1 µM HOE140, IL1α alone = 100)","MMP-3 Freisetzung MW (OD450nm) (IL1α + Bradykinin (0,1 µM) + 0,05 µM HOE140)","MMP-3 Freisetzung MW (OD450nm) (IL1α + Bradykinin (0,1 µM) + 0,5 µM HOE140)","Relativwerte bezogen auf Ausgangswert (IL1α + Bradykinin (0,1 µM) + 0,05 µM HOE140, IL1α alone = 100)","Relativwerte bezogen auf Ausgangswert (IL1α + Bradykinin (0,1 µM) + 0,5 µM HOE140, IL1α alone = 100)","MMP-3 Freisetzung MW (OD450nm) (IL1α + Bradykinin (0,1 µM) + 1 µM HOE140)","Relativwerte bezogen auf Ausgangswert (IL1α + Bradykinin (0,1 µM) + 1 µM HOE140, IL1α alone = 100)","Hemmung der durch Bradykinin erhöhten Freisetzung von MMP 3 (IL1α + Bradykinin (0,1 µM), 0,05 to 1 µM HOE140)"
"Bradykinin: natürlich vorkommendes Nonapeptid, das einige pharmakologische Effekte aufweist, die zu Entzündungen und Schmerzen führen (RPPGFSPFR; Bradykinin; UniProt P01042 381-389, looked up) [reference compound]",> 30%,433 OD450nm,"132,0",–,–,–,–,–,–,–,–,–
"D-Arginyl-L-arginyl-L-prolyl-L-prolylglycyl-3-(2-thienyl)-L-alanyl-L-seryl-(3R)-1,2,3,4-tetrahydro-3-isochinolincarbonyl-(2S,3aS,7aS)-octahydro-1H-indol-2-carbonyl-L-arginin [HOE140]",–,–,–,371 OD450nm,"113,1",458 OD450nm,309 OD450nm,"139,6","94,2",306 OD450nm,"93,3",dosis-abhängig gehemmt
